Measured values taken from patent US20240062782A1, “NONLINEAR LIGHT ABSORPTION MATERIAL, RECORDING MEDIUM, METHOD FOR RECORDING INFORMATION, AND METHOD FOR READING INFORMATION” (Panasonic Intellectual Property Management Co., Ltd., priority 2021, published 2024).
Read-outs that look alike come from different tables or passages of the source.

Assays:
Format in all cases: physicochemical
Solubility in chloroform = settings: chloroform as solvent
Excerpt: Unsubstituted truxene is a hydrocarbon compound that is nonpolar and has a high planarity. Unsubstituted truxene corresponds to the compound of the above formula (1) in which R^1 to R^6 are hydrogen atoms. In the present specification, the unsubstituted truxene may be simply called truxene. In truxene, […] stacking of the molecules is likely to occur, and the solubility in a solvent or resin monomer tends to be low. For example, when chloroform is used as the solvent, the solubility of truxene is about several mmol/L. When the concentration of truxene in a material is high, truxene molecules come close to each other and are assembled in various forms. Consequently, multiple new levels are formed at positions with energies lower than the lowest one-photon-allowed state of truxene itself. Accordingly, tailing of a peak derived from one-photon absorption can be verified by measuring the one-photon absorption spectrum of the material including truxene at a high concentration. In contrast, in the compound A represented by the formula (1) in which R^1 to R^6 are hydrocarbon groups, it tends to suppress the formation of assembly of compound molecules without substantially changing the size of the π C electron conjugated system of truxene. […]

[1] = Measurement of molar absorption coefficient at 405 nm (JIS K0115:2004); settings: wavelength 405 nm; compound concentration 100 to 500 mmol/L in solvent
Excerpt: The molar absorption coefficient of the compound A for light having a wavelength of 405 nm may be 100 mol^−1·L·cm^−1 or less, 10 mol^−1·L·cm^−1 or less, 1 mol^−1·L·cm^−1 or less, or 0.1 mol^−1·L·cm^−1 or less. The lower limit of the molar absorption coefficient of the compound A is not particularly limited and is, for example, 0.00001 mol^−1·L·cm^−1. The molar absorption coefficient can be measured by, for example, a method in accordance with the provision of Japanese Industrial Standards (JIS) K0115:2004. The measurement of molar absorption coefficient uses a light source that irradiates light with a photon density to hardly cause two-photon absorption by the compound A. Furthermore, in the measurement of molar absorption coefficient, the concentration of the compound A is adjusted to 100 mmol/L or more and 500 mmol/L or less. This concentration is very high compared to the concentration in a measurement test of the molar absorption coefficient of a light absorption peak. The molar absorption coefficient can be used as an index of one-photon absorption.
The compounds of Examples and Comparative Examples were measured for the molar absorption coefficient by a method in accordance with the provision of JIS K0115:2004. Specifically, first, as a measurement sample, a solution in which a compound was dissolved in a solvent was prepared. The concentration of the compound in the solution was appropriately adjusted within a range of 100 mmol/L or more and 500 mmol/L or less according to the absorbance at a wavelength of 405 nm of the compound as the target for measurement. Then, the absorption spectrum of the measurement sample was measured. The absorbance at a wavelength of 405 nm was read from the obtained spectrum. The molar absorption coefficient was calculated based on the concentration of the compound in the measurement sample and the optical path length of the cell used for the measurement. As described above, the molar absorption coefficients of the compounds of Examples 1 and 2 and the compounds of Comparative Examples 1 and 4 to 6 were measured.

[2] = Measurement of two-photon absorption cross-section by the Z-scan method, light of 405 nm; settings: light of wavelength 405 nm; for Two-photon absorption cross-section σ: titanium sapphire pulsed laser second harmonic, 80 fs, 1 kHz
Excerpt: The two-photon absorption cross-section of the compound A for light having a wavelength of 405 nm may be higher than 1 GM or 10 GM or more. The upper limit of the two-photon absorption cross-section of the compound A is not particularly limited and is, for example, 1000 GM. The two-photon absorption cross-section can be measured by, for example, the Z-scan method described in J. Opt. Soc. Am. B, 2003, Vol. 20, p. 529. The Z-scan method is broadly used as a method for measuring a nonlinear optical constant. In the Z-scan method, a measurement sample is moved along the irradiation direction of a laser beam near the focal point where the beam is focused. On this occasion, the change in the amount of light permeated through the measurement sample is recorded. In the Z-scan method, the power density of incident light changes depending on the position of the measurement sample. Accordingly, when the measurement sample performs nonlinear light absorption, if the measurement sample is located near the focal point of the laser beam, the amount of the transmitted light is attenuated. The two-photon absorption cross-section can be calculated by fitting the change of the amount of transmitted light to a theoretical curve predicted by the intensity of incident light, the thickness of the measurement sample, the concentration of the compound A in the measurement sample, and so on.
The compounds of Examples and Comparative Examples were measured for the two-photon absorption cross-section for light having a wavelength of 405 nm. The measurement of the two-photon absorption cross-section was performed using the Z-scan method described in J. Opt. Soc. Am. B, 2003, Vol. 20, p. 529. As the light source for measuring the two-photon absorption cross-section, a titanium sapphire pulsed laser was used. Specifically, each sample was irradiated with the second harmonic of the titanium sapphire pulsed laser. The pulse width of the laser was 80 fs. The repetition frequency of the laser was 1 kHz. The average power of the laser was changed within a range of 0.01 mW or more and 0.08 mW or less. The light from the laser was light having a wavelength of 405 nm. […] As described above, the two-photon absorption cross-sections of the compounds of Examples 1 and 2 and the compounds of Comparative Examples 1 and 4 to 6 were measured.

[3] = Measurement of fluorescence internal quantum yield (absolute PL quantum yield measuring apparatus); settings: for Fluorescence quantum yield Φf: in chloroform or tetrahydrofuran, excitation at one-photon absorption peak, measured 350-650 nm; for Fluorescence property: stated in words
Excerpt: The compound A also tends to emit fluorescent light. The wavelength of fluorescent light emitted by the compound A may be 405 nm or more and 660 nm or less and, in some cases, may be 300 nm or more and 650 nm or less. The quantum yield Φf of fluorescence in the compound A may be 0.05 or more, 0.1 or more, or 0.5 or more. The upper limit of the quantum yield Φf of fluorescence of the compound A is not particularly limited and is, for example, 0.99. In the present specification, the “quantum yield” specifically means internal quantum yield. The quantum yield of fluorescence can be measured by, for example, a commercially available absolute PL quantum yield measuring apparatus.
The compounds of Examples and Comparative Examples were measured for fluorescence internal quantum yield. The measurement sample was prepared by dissolving a compound in a chloroform (CLF) solvent or a tetrahydrofuran (THF) solvent. In the measurement, an absolute PL quantum yield measuring apparatus (C9920-02, manufactured by Hamamatsu Photonics K.K.) was used. The excitation wavelength was set to the peak wavelength of the one-photon absorption of the compound. The measurement wavelength was appropriately adjusted within a range of 350 nm or more and 650 nm or less so as not to overlap with the absorption wavelength band of the compound. As a reference, the solvent used for dissolving the compound was used. As described above, the fluorescence quantum yields of the compounds of Examples 1 and 2 and the compounds of Comparative Examples 1 and 4 to 6 were measured.

[4] = Solubility in the solvent when preparing samples for optical characteristics; settings: measurement solvent; sample could not be prepared
Method: (§1) The compounds of Examples and Comparative Examples were measured for optical characteristics by the following methods. […] Measurement of two-photon absorption cross-section

[5] = Stability for light having a wavelength in a short wavelength region; settings: short wavelength region (390-420 nm); optical characteristics could not be measured
Method: as §1

Compound	Molar absorption coefficient ε [1]	Fluorescence quantum yield Φf [3]	Two-photon absorption cross-section σ [2]	further results
c1ccc2c(c1)Cc1c-2c2c(c3c1-c1ccccc1C3)-c1ccccc1C2 [Comparative Example 1, 10,15-dihydro-5H-diindeno[1,2-a:1′,2′-c]fluorene]	24 L/mol/cm	0.1		solubility (Solubility in chloroform): about several; Ratio σ/ε ([2]; σ in GM over ε in mol^−1·L·cm^−1): 8
O=c1c2ccccc2c2c1c1c3ccccc3c(=O)c1c1c3ccccc3c(=O)c21 [Comparative Example 2, 5H-diindeno[1,2-a:1′,2′-c]fluorene-5,10,15-trione]				Solubility in the solvent (sample for measuring optical characteristics) [4]: low solubility
c1ccc2c(c1)[nH]c1c2c2[nH]c3ccccc3c2c2[nH]c3ccccc3c12 [Comparative Example 3, 10,15-dihydro-5H-5,10,15-triaza-diindeno[1,2-a:1′,2′-c]fluorene]				Stability for light having a wavelength in a short wavelength region [5]: low stability
C(#Cc1c(C#Cc2ccccc2)c(C#Cc2ccccc2)c(C#Cc2ccccc2)c(C#Cc2ccccc2)c1C#Cc1ccccc1)c1ccccc1 [Comparative Example 4, Hexakis(phenylethynyl)benzene]	2730 L/mol/cm		23000 GM	
COc1cc(-c2ccc(-c3ccc(C(=O)c4ccc(OCCOCCOC(C)=O)c(OCCOCCOC(C)=O)c4)cc3)c(OC)c2)ccc1-c1ccc(C(=O)c2ccc(OCCOCCOC(C)=O)c(OCCOCCOC(C)=O)c2)cc1 [Comparative Example 5]	35 L/mol/cm	0	570 GM	
OC(C#Cc1ccc(N(c2ccc(C#CC(O)(c3ccccc3)c3ccccc3)cc2)c2ccc(C#CC(O)(c3ccccc3)c3ccccc3)cc2)cc1)(c1ccccc1)c1ccccc1 [Comparative Example 6]	70 L/mol/cm	0.3	380 GM	
CC1(C)c2ccccc2-c2c1c1c(c3c2C(C)(C)c2ccccc2-3)C(C)(C)c2ccccc2-1 [Example 1, 10,15-dihydro-5,5,10,10,15,15-hexamethyl-5H-diindeno[1,2-a:1′,2′-c]fluorene]	0.04 L/mol/cm	0.1	40 GM	solubility (Solubility in chloroform; organic solvent or mixture, read-out: Solubility): ≥ 100 mM; Fluorescence property [3]: had a fluorescence property
CCC1(CC)c2ccccc2-c2c1c1c(c3c2C(CC)(CC)c2ccccc2-3)C(CC)(CC)c2ccccc2-1 [Example 2, 10,15-dihydro-5,5,10,10,15,15-hexaethyl-5H-diindeno[1,2-a:1′,2′-c]fluorene]	0.08 L/mol/cm	0.1	43 GM	Fluorescence property [3]: had a fluorescence property
